For data set [1], the system named is mice with PTZ-induced convulsions. Put plainly: in vivo efficacy experiment in PTZ-induced epilepsy mouse model. More on the design: species or system C57 mice. The following applies: for Survival rate: 60 min before PTZ 120 mg/kg s.c., 30 min observation; for Number of clonic seizures / Number of tonic seizures / Clonic seizure latency period / Tonic seizure latency period: Mean ± SEM; for Clonic seizure latency period / Tonic seizure latency period: no seizure in 30 min recorded as 1800 s; for protective effects against acute epileptic seizures: conclusion in words. The procedure: Male C57 mice, purchased from SPF (Suzhou) Biotechnology Co., Ltd.
PTZ: a 120 mg/kg PTZ solution (administration volume: 10 mL/kg) was prepared with normal saline as the solvent.
Test compounds: solutions of the test compounds at 3/1/0.3 mg/kg (administration volume: 10 mL/kg) were prepared with Vehicle in section 1.4 as the solvent.
One hour before the test, the experimental animals were transferred into an operation room for acclimation.
The mice were randomly grouped, marked, and weighed, with 10 mice in each group. At 60 min before PTZ administration, the test compounds and Vehicle were separately orally administered.
The PTZ solution was administered subcutaneously before experimental observation, and this time point was recorded as the observation starting point.
Immediately after PTZ administration, the animals were placed in observation boxes and observed for 30 min. The following observations of the animals were recorded:
Clonic seizure: the animal has a generalized myoclonus that lasts for more than 3 s and is accompanied by falling.
Tonic seizure: the limbs are straightened at a 90° angle to the torso.
All metrology data were expressed as mean ± standard error of mean (Mean ± SEM), and the Prism 8.0 statistical software was used for data testing and analysis.

A short description of data set [2]: acute toxicity experiment and side effect observation in mice. Type of data set: in vivo, ICR mice. The following applies: both sexes, ICR, mouse, in vivo; single oral intragastric administration at 2.5, 5, 10, 20 mg/kg; 14 days observation; read-out: maximum tolerated dose (MTD). The procedure: (§1) This experiment aimed to evaluate the acute toxic manifestations of the test compounds following single oral intragastric administration in ICR mice, observe the recovery status of the ICR mice within 14 days post-administration, and determine the maximum tolerated dose of the test compounds.
(§2) 65 male and 65 female ICR mice were purchased from Shanghai Jihui Laboratory Animal Care Co., Ltd. After 4-5 days of acclimatization of the experimental animals, the formal experiment was carried out. The mice were housed at 5 mice/cage in a 12/12-hour light/dark cycle at a room temperature of 23±2 °C, with free access to food and water.
(§3) Based on the Vehicle in section 2.4, a certain weight of the test compound was weighed, 5% of the total volume of a DMSO liquid was first added, and the mixture was vortexed. After the drug was completely dissolved, 5% of the total volume of an HS-15 liquid was added, and the mixture was well mixed and vortexed. Finally, a 20% hydroxypropyl-β-cyclodextrin solution was added according to the remaining volume proportion, forming a 2 mg/mL clear and homogeneous solution. The solution was then proportionally diluted in a gradient to concentrations of 1 mg/mL, 0.5 mg/mL, and 0.25 mg/mL (the administration volume was 10 mL/kg).
(§4) • a. About 12-18 h before testing, animals were weighed and then grouped, and fasted overnight (water was accessible). • b. The next day, the mice were reweighed according to groups. Ten mice per group (5 males and 5 females/dose) were subjected to oral intragastric administration of the test compound or Vehicle. The day of administration was designated as Day 1. • c. […] Observation period for Day 2 to Day 14: 9:00 to 12:00.
(§5) • (1) The clinical symptoms and mortality in each group of ICR mice post-administration were recorded to determine the maximum tolerated dose. • (2) The symptom alleviation and recovery status in each group of ICR mice post-administration were recorded.

The subject of data set [3] is ICR mice. The description is as above. The data set is classed as in vivo. Conditions: for clinical symptoms / death: 4-8 h post-administration; for cage-side observations / main adverse reactions / tolerability: single oral administration, 2.5 to 20 mg/kg. The procedure: as §1, §2, §3, §4, §5
In data set [4] the target is GABAa receptor (α1β2γ2) (Homo sapiens, UniProt P14867+P47870). Kind of data set: in vitro GABAa receptor (α1β2γ2) cellular activity assay, manual whole-cell patch clamp, enhancement of currents induced by 1 µM GABA. The data set is classed as cell-based. The following applies: for Emax compared to Sage-217: conclusion in words from Table 1-2. The procedure:
The cells used in this experiment were derived from a CHO cell line that stably expressed normal GABAa receptor functions after transfection with human GABAa receptor α1, β2, and γ2 subunit cDNAs. The cell line was constructed by B'sys GmbH. The cells were cultured in a medium (purchased from Invitrogen) containing the following components: DMEM culture medium; 10% (v/v) inactivated fetal bovine serum; 5 µg/mL Puromycin; 250 µg/mL Hygromycin B; and 100 µg/mL Zeocin. The cells were grown in culture dishes containing the above medium and cultured in an incubator at 37 °C with 5% CO2. 12 h to 24 h before the electrophysiological experiment, the cells were transferred onto circular glass slides placed in culture dishes, and were grown under the same medium and culture conditions as above. The density of cells on each circular glass slide was required to meet the requirement that the overwhelming majority of cells were independent and individual.
In this experiment, a manual patch-clamp system HEKA EPC10 USB signal amplifier and digital conversion system (purchased from HEKA Electronics, Germany) were used for whole-cell current recording. The circular glass slides with surface-grown CHO GABAa cells (see the cell culture and requirement section above) were taken out from the culture dishes and then placed into an electrophysiological recording chamber under an inverted microscope. The recording chamber was continuously perfused with extracellular fluid (approximately 1-2 mL/min). In the experiment, the whole-cell current recording technique was employed to record chloride ion currents of GABAa channels. 1 µM GABA was used to activate chloride ion currents of GABAa channels on each cell as an initial control (the reason for using 1 µM GABA concentration was that: this concentration was an effective activation concentration for the GABAa ion channel agonist GABA on the cells used in this experiment, falling between 10% and 20%). Unless otherwise specified, the experiment was performed at conventional room temperature (about 25 °C), and only cells meeting the electrophysiological recording criteria were adopted. In the experiment, the cells were ruptured and sealed, and were clamped at -80 mV after entering a whole-cell state. 1 µM GABA acted on the cells through the drug perfusion system to induce chloride ion currents of GABAa channels; the action time was about 4 s, and the current magnitude was used as the initial control value. Subsequently, the cells were perfused and incubated with the test concentration compound for 3 min, and then a mixed solution of 1 µM GABA and the corresponding test concentration compound was applied to act on the cells to induce currents, so as to observe the enhancing effect of the test compound on the currents induced by 1 µM GABA. When the cell state stabilized, the test compound would be applied from low to high concentrations to act on the same cell. In the experiment, to avoid current reduction caused by desensitization of GABAa ion channels, the interval time for the test substance acting on the cells through the drug perfusion system was at least 180 s.
The experimental data were analyzed using data analysis software provided by HEKA Patchmaster, Microsoft Excel, and Graphpad Prism.
A general note: The patch-clamp technique gives a direct electrical read-out from membranes.

Where [5] appears, read: all dose groups (2.5/5/10/20 mg/kg).
The mark [6] stands for this setting: positive modulator enhancing GABAa receptor currents induced by 1 µM GABA, CHO cells, read-out: EC50.

The values that follow come from patent publication EP4711377A1, “STEROID COMPOUND, PREPARATION METHOD THEREFOR, AND USE THEREOF” (Shujing Biopharma Co., Ltd, priority 2023, dated 2024).

Like-named read-outs stand apart in the source and are kept apart here.

Sequence of GABAa receptor (α1β2γ2) (P14867 28-456): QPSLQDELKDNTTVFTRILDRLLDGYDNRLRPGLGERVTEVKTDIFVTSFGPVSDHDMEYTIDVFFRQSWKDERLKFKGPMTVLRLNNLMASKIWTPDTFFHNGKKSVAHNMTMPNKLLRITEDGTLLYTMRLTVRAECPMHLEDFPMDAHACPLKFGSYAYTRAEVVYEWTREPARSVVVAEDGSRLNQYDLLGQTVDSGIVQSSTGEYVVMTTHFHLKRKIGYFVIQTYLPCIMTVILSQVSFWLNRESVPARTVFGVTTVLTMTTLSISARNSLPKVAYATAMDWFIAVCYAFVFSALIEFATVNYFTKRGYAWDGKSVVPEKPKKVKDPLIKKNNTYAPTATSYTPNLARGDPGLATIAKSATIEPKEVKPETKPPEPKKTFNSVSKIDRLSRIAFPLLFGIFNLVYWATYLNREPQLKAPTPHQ
Sequence of GABAa receptor (α1β2γ2) (P47870 25-512 limits assumed): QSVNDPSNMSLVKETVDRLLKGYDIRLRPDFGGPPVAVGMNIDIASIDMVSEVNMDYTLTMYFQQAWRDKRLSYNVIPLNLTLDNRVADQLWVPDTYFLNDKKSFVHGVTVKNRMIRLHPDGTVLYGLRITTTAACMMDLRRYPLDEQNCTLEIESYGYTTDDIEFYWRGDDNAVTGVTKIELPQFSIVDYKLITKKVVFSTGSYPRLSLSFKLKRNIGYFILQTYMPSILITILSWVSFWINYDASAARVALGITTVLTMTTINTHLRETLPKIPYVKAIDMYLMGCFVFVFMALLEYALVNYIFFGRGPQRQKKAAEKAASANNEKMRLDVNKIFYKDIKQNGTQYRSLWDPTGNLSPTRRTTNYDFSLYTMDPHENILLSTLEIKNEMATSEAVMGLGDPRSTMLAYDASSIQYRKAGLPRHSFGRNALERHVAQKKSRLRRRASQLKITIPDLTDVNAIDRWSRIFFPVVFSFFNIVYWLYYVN
Sequence of GABAa receptor (α1β2γ2) (P18507 40-475 partner): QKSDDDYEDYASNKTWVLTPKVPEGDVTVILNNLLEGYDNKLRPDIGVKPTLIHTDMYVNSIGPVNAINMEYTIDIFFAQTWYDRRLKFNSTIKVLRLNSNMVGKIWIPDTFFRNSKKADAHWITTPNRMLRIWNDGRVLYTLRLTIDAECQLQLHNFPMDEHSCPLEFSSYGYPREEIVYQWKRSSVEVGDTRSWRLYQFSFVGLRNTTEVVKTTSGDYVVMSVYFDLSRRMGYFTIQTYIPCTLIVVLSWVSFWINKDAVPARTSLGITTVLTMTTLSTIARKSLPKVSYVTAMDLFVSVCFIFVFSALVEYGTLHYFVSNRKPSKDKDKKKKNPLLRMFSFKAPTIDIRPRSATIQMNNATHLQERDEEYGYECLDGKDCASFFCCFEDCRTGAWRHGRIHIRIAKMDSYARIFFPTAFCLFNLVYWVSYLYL

Usually MTD stands for the highest dose tested that stayed within the study's limit of toxicity. The EC50 is the concentration at which the effect is half-maximal. Consider `C[C@@]1(O)CC[C@H]2[C@H](CC[C@@H]3[C@@H]2CC[C@]2(C)[C@@H](C(=O)Cn4cc(C#N)cn4)CC[C@@H]32)C1` [Sage-217, reference compound], for which the Survival rate in data set [1] (dose 0.3 mg/kg p.o.) is given as 0%. Also, in data set [1] (dose 1 mg/kg p.o.), the Survival rate is listed as 100%. In data set [1] (dose 3 mg/kg p.o.), the Survival rate came to 100%, the “Number of clonic seizures” value is 0.9±0.3, the “Number of tonic seizures” value turned out to be 0.0±0.0 and the “Clonic seizure latency period” value was found to be 1012.3 ± 181.4 s. For the same compound, in data set [1] (dose 3 mg/kg p.o.), the “Tonic seizure latency period” value is 1800.0 ± 0.0 s. The “protective effects against acute epileptic seizures” value (shortened to “protective effects”) in data set [1] (low dose (1 mpk)) is “significant protective effects”. Moreover, the MTD at 14 days in data set [2] was determined as 10 mg/kg. In addition, the mortality result in data set [3] (20 mg/kg group, single oral intragastric administration) was “mortality was observed in both male and female mice”. Further, in data set [3] (20 mpk group), the clinical symptoms entry is “prostration symptoms”. In addition, the death in data set [3] (20 mpk group, 5 males and 5 females) is 1 male and 2 female mice died. Besides, in data set [3], the “cage-side observations / main adverse reactions” value is “ataxia that aggravated with the increase of dose, as well as severe loss of righting reflex observed at high doses”. In addition, the EC50 in data set [4] is 120 nM.
`C[C@H]1C[C@H]2[C@H](CC[C@@H]3[C@@H]2CC[C@]2(C)[C@@H](C(=O)Cn4ncnn4)CC[C@@H]32)C[C@]1(C)O` [Example 20, 1-((2S,3S,5R,8R,9R,10S,13S,14S,17S)-3-Hydroxy-2,3,13-trimethylhexadecahydro-1H-cyclopenta[a]phenanthren-17-yl)-2-(2H-tetrazol-2-yl)ethan-1-one] displayed a Survival rate in data set [1] (dose 0.3 mg/kg p.o.) of 10%. Besides, in data set [1] (dose 1 mg/kg p.o.), the Survival rate is recorded as 100%. In data set [1] (dose 3 mg/kg p.o.), the “Number of clonic seizures” value worked out at 0.0±0.0, the “Number of tonic seizures” value is given as 0.0±0.0, the “Clonic seizure latency period” value stood at 1800.0 ± 0.0 s and the “Tonic seizure latency period” value was 1800.0 ± 0.0 s. The “protective effects” value in data set [1] (extremely low dose (0.3 mpk)) was “partial protective effects”. Besides, the “protective effects” value in data set [1] (low dose (1 mpk)) was “significant protective effects”. The MTD at 14 days in data set [2] was 20 mg/kg. For the same compound, the death entry in data set [3] (setting [5]) is given as “no death occurred”. Moreover, in data set [3], the “cage-side observations / main adverse reactions” value is on record as “ataxia that aggravated with the increase of dose” and the tolerability result was “all animals could tolerate it”. Besides, in data set [4], the “Emax compared to Sage-217” value is recorded as “lower Emax compared to Sage-217”. In data set [4] (setting [6]), the EC50 is 110 nM. In addition, the activation at 0.1 µM in data set [4] (single concentration 0.1 µM, relative enhancement amplitude of GABAa receptor currents induced by 1 µM GABA, CHO cells, read-out: Agonist ratio) amounted to 970%.
In the case of `C[C@@H]1C[C@H](C(=O)Cn2ncnn2)[C@@]2(C)CC[C@H]3[C@@H](CC[C@@H]4C[C@](C)(O)[C@@H](C)C[C@@H]43)[C@H]12` [Example 9, 1-((2S,3S,5R,8R,9R,10S,13S,14S,15R,17S)-3-Hydroxy-2,3,13,15-tetramethylhexadecahydro-1H-cyclopenta[a]phenanthren-17-yl)-2-(2H-tetrazol-2-yl)ethan-1-one], in data set [1] (dose 0.3 mg/kg p.o.), the Survival rate is recorded as 10%. This compound also showed a Survival rate in data set [1] (dose 1 mg/kg p.o.) of 100%. In data set [1] (dose 3 mg/kg p.o.), the Survival rate is on record as 100%, the “Number of clonic seizures” value is 0.2±0.1, the “Number of tonic seizures” value stood at 0.0±0.0 and the “Clonic seizure latency period” value turned out to be 1649.7 ± 105.0 s. Besides, the “Tonic seizure latency period” value in data set [1] (dose 3 mg/kg p.o.) came to 1800.0 ± 0.0 s. Also, the “protective effects” value in data set [1] (extremely low dose (0.3 mpk)) is recorded as “partial protective effects”. The “protective effects” value in data set [1] (low dose (1 mpk)) was “significant protective effects”. For the same compound, the MTD at 14 days in data set [2] is 20 mg/kg. Further, in data set [3] (20 mpk group), the clinical symptoms result is “gait instability”. For the same compound, the death entry in data set [3] (setting [5]) is given as “no death occurred”. For the same compound, the clinical symptoms result in data set [3] (all lower dose groups (below 20 mpk)) is on record as “returned to normal”. In data set [3], the “cage-side observations / main adverse reactions” value is “prostration and mild loss of righting reflex observed in some of the mice at high doses”; the tolerability entry was “all animals could tolerate it”. For the same compound, in data set [4], the “Emax compared to Sage-217” value is listed as “lower Emax compared to Sage-217”. Also, the half-maximal effective concentration (EC50) in data set [4] (setting [6]) stood at 40 nM.
